The text below walks through data of US20180021288A1, “Neuroprotection in Demyelinating Diseases” (Biogen MA Inc., priority 2010, published 2018).

Structures can show the parent of a compound that is named as a salt. Where two headings read alike, the source gives them in different places.

The subject of series [1] is MOG-EAE. The series can be described thus: Efficacy of DMF in chronic MOG-EAE (Example 1). The series is classed as in vivo, mouse. From the text: See also, Schilling et al., “Fumaric Acid Esters Are Effective in Chronic Experimental Autoimmune Encephalomyelitis and Supress Macrophage Infiltration,” Clinical and Experimental Immunology, Vol. 145, No. 1, pp. 101-107 (2006).

Series [2] relates to MOG-EAE. The series can be described thus: DMF/GA co-therapy during chronic MOG-EAE (Example 3). The series is classed as in vivo, mice. The following applies: for mean clinical EAE score during the chronic phase / onset of EAE symptoms: FIG. 4; for infiltration by T cells / number of infiltrating macrophages: chronic MOG-EAE; for infiltration by T cells: FIG. 7; for number of infiltrating macrophages: FIG. 8; for axonal loss and destruction: chronic phase, FIG. 9. The procedure: The treatment groups were as follows: 1) Mice immunized with 200 μg MOG/CFA (complete Freund's adjuvant)+200 ng PTX (pertussis toxin)+vehicle (methocel). 2) Mice immunized with 200 μg MOG/CFA and 50 μg GA+vehicle. […] Long term experiment: additional boost on day 28 p.i.

The subject of series [3] is MOG-EAE. The series can be described thus: DMF/GA co-therapy during short term (acute) course of MOG-EAE (Examples 3 and 8). The following applies: for macrophage/microglia in EAE lesions: day 26 p.i., FIG. 13; for Incidence: pooled data from three experiments. The series is classed as in vivo, mice. The procedure: The treatment groups were as follows:
1) Mice immunized with 200 μg MOG/CFA (complete Freund's adjuvant)+200 ng PTX (pertussis toxin)+vehicle (methocel).
2) Mice immunized with 200 μg MOG/CFA and 50 μg GA+vehicle.
In the acute disease phase (day 26 or day 18 p.i., respectively), parameters of inflammation as well as CNS tissue integrity were analyzed. To this end, 12 week wild-type or C57BL/6 mice were actively immunized with […] of MOG peptide 35-55 and pertussis toxin. On day 18 or 26 p.i., histochemistry was performed to identify T cells (CD3 immunohistochemistry), macrophages/microglia (Mac-3), demyelination (Luxol Fast Blue staining), and axonal loss (Bielschowsky silver impregnation). Histological changes were quantified by a blinded observer counting six visual fields on spinal cord cross sections comprising cervical, thoracic and lumbar spinal cord. Statistical evaluations were performed by Kruskal-Wallis test or t-test. ** p<0.01; *** p<0.001.

In series [4] the test system is MOG-EAE. The series can be described thus: DMF/IFN-beta co-therapy in MOG-EAE (Examples 4 and 8). The series is classed as in vivo, mice. To be noted: DMF 15 mg/kg p.o.; for Incidence: FIG. 11, IFN-beta 10,000 U s.c. e.o.d; for mean clinical EAE score / clinical disease course: short-term course, IFN-beta 10,000 U s.c., FIG. 11, FIG. 15.
Assay in series [5]: not given
This is another data set of the same source.

In series [6] the test system is MOG-EAE. To be noted: 100 or 500 mcg glatiramer acetate co-injected with MOG antigen; FIG. 3. From the text: In this experiment mice were co-injected with glatiramer acetate and the MOG antigen. Specifically, a control group received MOG alone, while two experimental groups received doses of 100 or 500 mcg glatiramer acetate.
For series [7], the system named is MOG-EAE. To be noted: in vivo; cited from earlier work.
Setting [8] is: FIG. 4, single experiment, GA 50 μg, DMF 15 mg/kgBW.
[9] abbreviates: FIG. 5, pooled data from two experiments (n=12 per group).
Where [10] appears, read: IFN-beta-1a study, healthy volunteers, DMF 240 mg tid.
Where [11] appears, read: GA study, healthy volunteers, DMF 240 mg tid.

Regarding `COC(=O)/C=C/C(=O)OC` [DMF, Dimethyl fumarate], in the series on MOG-EAE [1] (DMF 15 mg/kg twice daily via oral gavage, FIG. 1), the mean clinical score result is given as “reduced”. In addition, in the series with MOG-EAE [1] (mouse, in vivo), the T-cell infiltration result is on record as “without suppressing”, the “efficacy in chronic MOG-EAE” value is reported as “effective” and the macrophage infiltration entry is “suppress”. In addition, in the series with MOG-EAE [1] (spinal cord tissue, FIG. 2B), the demyelination entry is “reduced”. Further, in the series with MOG-EAE [2] (setting [8]), the Incidence is reported as 6/6. In the series with MOG-EAE [2] (GA 50 μg, DMF 15 mg/kgBW), the “mean clinical EAE score during the chronic phase” value is recorded as “little if any effect” and the “onset of EAE symptoms” value is reported as “delayed”. Besides, in the series on MOG-EAE [2] (setting [9]), the Incidence is on record as 9/12. In the series on MOG-EAE [2], the “infiltration by T cells” value is listed as “neither GA nor DMF reduces”; the “number of infiltrating macrophages” value was “neither GA nor DMF alone does so”; the “axonal loss and destruction” value is “reduce axonal loss and destruction”. Also, the “macrophage/microglia in EAE lesions” value in the series on MOG-EAE [3] is on record as “reduction of macrophage/microglia”. In the series with MOG-EAE [3] (listed as DMF alone), the “macrophage/microglia in EAE lesions” value was “efficiently reduces”. For the same molecule, the Incidence with MOG-EAE [3] (short term course) was 11/18. Also, the “mean clinical EAE score / clinical disease course” value with MOG-EAE [3] (short term course, FIG. 10A and 10B) was “greater than that of GA”. In the series with MOG-EAE [4], the Incidence is 6/6 and the “mean clinical EAE score / clinical disease course” value is given as “exacerbated the EAE compared to the methocel controls”. Besides, under “IFN-beta-1a study”, the “most common adverse events” value is given as “flushing” and the new safety signals entry was “no new safety signals”. Moreover, under setting [10], the “Any AE” value is 71%, the Diarrhea is reported as 0%, the Flushing is listed as 50% and the Headache is on record as 13%. Under setting [10], this molecule returned a Nausea of 4%, a Paresthesia of 21% and a Pruritus of 4%. Moreover, the Influenza-like illness (human, in vivo) worked out at 0%. In series [5] (GA study), the “most common adverse events” value is reported as “flushing” and the new safety signals result is “no new safety signals”. In series [5] (setting [11]), the “Any AE” value came to 84%, the Diarrhea turned out to be 8%, the Flushing came to 76% and the Headache is listed as 12%. Moreover, in series [5] (setting [11]), the Nausea is recorded as 8%, the Paresthesia is 32% and the Pruritus was found to be 28%. In addition, the “subjects discontinued due to adverse event” value in series [5] (GA study, mild erythematous facial nodule (DMF alone), mild nausea (DMF+GA)) is reported as “one”. In addition, the Influenza-like illness in series [5] (human, in vivo) was 0%.

Consider “L-glutamic acid polymer with L-alanine, L-lysine and L-tyrosine, acetate (salt) [GA]”, for which the mean clinical score result in the series on MOG-EAE [6] is “reduced the mean clinical score of the 100 or 500 mcg groups in a dose-dependent manner”. Moreover, the Incidence with MOG-EAE [2] (setting [8]) is 6/6. Also, in the series with MOG-EAE [2] (GA 50 μg, DMF 15 mg/kgBW), the “mean clinical EAE score during the chronic phase” value is “intermediate effect” and the “onset of EAE symptoms” value is reported as “delayed”. For the same molecule, the Incidence in the series on MOG-EAE [2] (setting [9]) is 11/12. Besides, in the series on MOG-EAE [2], the “infiltration by T cells” value is on record as “neither GA nor DMF reduces”; the “number of infiltrating macrophages” value is “neither GA nor DMF alone does so”; the “axonal loss and destruction” value is “reduce axonal loss and destruction”. In addition, the “infiltrates (inflammatory index, HE staining of spinal cords)” value in the series with MOG-EAE [2] (chronic disease phase, FIG. 6) was “reduces infiltrates”. In addition, in the series on MOG-EAE [3] (short term course), the Incidence was 13/18. In addition, in the series with MOG-EAE [7], the “prevention of clinical and histological signs of EAE in combination with atorvastatin” value was “synergize with atorvastatin”.

B1: IFN-beta: murine interferon beta, 10,000 U s.c. (protein, UniProt P01575 22-182, looked up)
Interferon beta: INYKQLQLQERTNIRKCQELLEQLNGKINLTYRADFKIPMEMTEKMQKSYTAFAIQEMLQNVFLVFRNNFSSTGWNETIVVRLLDELHQQTVFLKTVLEEKQEERLTWEMSSTALHLKSYYWRVQRYLKLMKYNSYAWMVVRAEIFRNFLIIRRLTRNFQN
With B1, in the series with MOG-EAE [4], the Incidence is 5/6 and the “mean clinical EAE score / clinical disease course” value is “exacerbated the EAE compared to the methocel controls”.
